Patent US7244727B2, “Fused bicyclic nitrogen-containing heterocycles” (Japan Tobacco Inc., priority 2002, dated 2007)
Values joined by “and” are separate entries in the source; they are usually repeats but may differ in a detail not shown here. Identical values can stand only once.

Tests used:
human DGAT1 = target: T1, human DGAT1 (Homo sapiens, UniProt O75907); assay: DGAT Scintillation Proximity Assay (SPA) with membranes of insect cells expressing human flagtag DGAT1; format: biochemical; conditions: read-out: hDGAT1 IC50
T1 construct: made in house; host or cells: insect cells (sf9, sf21 or High Five) infected with baculovirus; total cell membranes
T1 sequence (O75907 1-488): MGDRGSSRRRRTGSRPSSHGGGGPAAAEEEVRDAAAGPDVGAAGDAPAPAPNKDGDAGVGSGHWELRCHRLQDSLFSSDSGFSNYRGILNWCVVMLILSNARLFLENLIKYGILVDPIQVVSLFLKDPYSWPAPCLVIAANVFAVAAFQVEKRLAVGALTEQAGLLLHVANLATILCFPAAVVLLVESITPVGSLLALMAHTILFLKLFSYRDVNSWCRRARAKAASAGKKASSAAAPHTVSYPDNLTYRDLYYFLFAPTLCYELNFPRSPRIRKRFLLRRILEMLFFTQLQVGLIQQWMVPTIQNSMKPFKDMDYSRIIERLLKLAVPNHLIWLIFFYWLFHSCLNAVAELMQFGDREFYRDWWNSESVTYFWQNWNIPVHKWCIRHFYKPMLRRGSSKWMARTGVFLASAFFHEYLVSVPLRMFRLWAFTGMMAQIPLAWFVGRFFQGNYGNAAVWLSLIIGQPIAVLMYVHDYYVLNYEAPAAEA
Summary of the method: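 Membranes (0.2 μg/well) from insect cells expressing human flag-tagged DGAT1 incubated with 10 μM compound and 200 μM dioleoyl glycerol substrate; mercuric chloride as inhibition control. Reaction stopped with WGA SPA beads in mercuric chloride, overnight bead coupling, then scintillation proximity signal read.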

| SMILES | IC50 (human DGAT1) | melting point |
| --- | --- | --- |
| Cc1nc(N)c2c(n1)OC(C)(C)C(c1ccc([C@H]3CC[C@H](C(=O)NC(C)(C)CO)CC3)cc1)=N2 [Example 2-257] | 10 to 100 nM | 220 to 225 °C |
| Cc1nc(N)c2c(n1)OC(C)(C)C(c1ccc([C@H]3CC[C@H](C(=O)N4C[C@@H](O)[C@@H](O)C4)CC3)cc1)=N2 [Example 2-258] | 10 to 100 nM | > 250 °C |
| Cc1nc(N)c2c(n1)OC(C)(C)C(c1ccc([C@H]3CC[C@H](CSCC(=O)O)CC3)cc1)=N2 [Example 2-259] | 10 to 100 nM | 271 to 277 °C |
| Cc1nc(N)c2c(n1)OC(C)(C)C(c1ccc([C@H]3CC[C@H](CSC(C)(C)C(=O)O)CC3)cc1)=N2 [Example 2-260] | 10 to 100 nM | 235 to 239 °C |
| Cc1nc(N)c2c(n1)OC(C)(C)C(c1ccc([C@H]3CC[C@H](CS(=O)(=O)CC(=O)O)CC3)cc1)=N2 [Example 2-261] | 10 to 100 nM | 225 to 227 °C |
| Cc1nc(N)c2c(n1)OC(C)(C)C(c1ccc([C@H]3CC[C@H](C[S+]([O-])CC(=O)O)CC3)cc1)=N2 (stereo partly drawn) [Example 2-262] | 10 to 100 nM | > 166 °C |
| Cc1nc(N)c2c(n1)OC(C)(C)C(c1ccc([C@H]3CC[C@H](c4nn[nH]n4)CC3)cc1)=N2 [Example 2-263] | < 10 nM | > 250 °C |
| Cc1nc(N)c2c(n1)OC(C)(C)C(c1ccc([C@H]3CC[C@H](C(=O)Nc4nn[nH]n4)CC3)cc1)=N2 [Example 2-264] | 10 to 100 nM | > 250 °C |
| CC(=O)N1CCC(c2ccc(C3=Nc4c(N)ncnc4OC3(C)C)cc2)CC1 [Example 3-3] | > 100 nM | 232 to 237 °C |
| CC1(C)Oc2ncnc(N)c2N=C1c1ccc(C2CCN(C(=O)C(=O)O)CC2)cc1 [Example 3] | 10 to 100 nM | 188 to 190 °C and 188.8 to 190.9 °C |
| CCOC(=O)C1CCN(c2ccc(C3=Nc4c(N)ncnc4OC3(C)C)cc2)CC1 [Example 4-3] | > 100 nM | 176 to 177 °C |
| CC1(C)Oc2ncnc(N)c2N=C1c1ccc(N2CCC(C(=O)O)CC2)cc1 [Example 4-4] | 10 to 100 nM | > 240 °C |
| CCOC(=O)N1CCN(c2ccc(C3=Nc4c(N)ncnc4OC3(C)C)cc2)CC1 [Example 4-5] | > 100 nM | 174 to 175 °C |
| CC1(C)Oc2ncnc(N)c2N=C1c1ccc(N2CCCC2)cc1 [Example 4-6] | > 100 nM | 191 to 196 °C |
| CC1(C)Oc2ncnc(N)c2N=C1c1cccc(OCc2ccccc2)c1 [Example 5-2] | > 100 nM | 130 to 131 °C |
| CC1(C)Oc2ncnc(N)c2N=C1c1cccc(OCC2CCCCC2)c1 [Example 5-3] | > 100 nM | 151 to 152 °C |
| CC1(C)Oc2ncnc(N)c2N=C1c1cccc(Cl)c1 [Example 5] | > 100 nM | 117 to 133 °C and 117.2 to 133.4 °C |
| Cc1nc(N)c2c(n1)OC(C)(C)C(c1ccc([C@H]3CC[C@H](CNC(=O)CO)CC3)c(Cl)c1)=N2 [Example 6-2] | 10 to 100 nM | 229 to 232 °C |
| Cc1nc(N)c2c(n1)OC(C)(C)C(c1ccc([C@H]3CC[C@H](CC(=O)O)CC3)c(N)c1)=N2 [Example 6-3] | 10 to 100 nM | 280 °C (dec.) |
| Cc1nc(N)c2c(n1)OC(C)(C)C(c1ccc([C@H]3CC[C@H](CC(=O)O)CC3)c(N3CCCC3=O)c1)=N2 [Example 6-4] | > 100 nM | 177 °C (dec.) |

| SMILES | IC50 (human DGAT1) | melting point |
| --- | --- | --- |
| CCOc1cc(C2=Nc3c(N)nc(C)nc3OC2(C)C)ccc1[C@H]1CC[C@H](CC(=O)O)CC1 [Example 6-8] | 10 to 100 nM | 224 to 225 °C |
| Cc1nc(N)c2c(n1)OC(C)(C)C(c1ccc([C@H]3CC[C@H](CC(=O)O)CC3)c(F)c1)=N2 [Example 6-9] | < 10 nM | > 269 °C |
| Cc1nc(N)c2c(n1)OC(C)(C)C(c1ccc([C@H]3CC[C@H](CNC(=O)CO)CC3)c(F)c1)=N2 [Example 6-10] | 10 to 100 nM | 212 to 214 °C |
| Cc1nc(N)c2c(n1)OC(C)(C)C(c1ccc([C@H]3CC[C@H](Cc4noc(=O)[nH]4)CC3)c(F)c1)=N2 [Example 6-11] | 10 to 100 nM | > 282 °C |
| Cc1nc(N)c2c(n1)OC(C)(C)C(c1ccc([C@H]3CC[C@H](Cc4cc(O)[nH]n4)CC3)c(Cl)c1)=N2 [Example 6-12] | < 10 nM | 171 to 173 °C |
| CCNC(=O)NC[C@H]1CC[C@H](c2ccc(C3=Nc4c(N)nc(C)nc4OC3(C)C)cc2Cl)CC1 [Example 6-13] | < 10 nM | > 250 °C |
| Cc1nc(N)c2c(n1)OC(C)(C)C(c1ccc([C@H]3CC[C@H](CNC(=O)OCC(C)C)CC3)c(Cl)c1)=N2 [Example 6-14] | 10 to 100 nM | 205 to 209 °C |
| Cc1nc(N)c2c(n1)OC(C)(C)C(c1ccc([C@H]3CC[C@H](CNC(=O)N4CCOCC4)CC3)c(Cl)c1)=N2 [Example 6-15] | 10 to 100 nM | 225 to 228 °C |
| Cc1nc(N)c2c(n1)OC(C)(C)C(c1ccc([C@H]3CC[C@H](CNC(=O)N(C)C)CC3)c(Cl)c1)=N2 [Example 6-16] | > 100 nM | > 250 °C |
| Cc1nc(N)c2c(n1)OC(C)(C)C(c1ccc([C@H]3CC[C@H](CN4CCOC4=O)CC3)c(Cl)c1)=N2 [Example 6-17] | > 100 nM | > 250 °C |
| Cc1nc(N)c2c(n1)OC(C)(C)C(c1ccc([C@H]3CC[C@H](CNC(=O)C(C)(C)O)CC3)c(Cl)c1)=N2 [Example 6-18] | 10 to 100 nM | > 250 °C |
| Cc1nc(N)c2c(n1)OC(C)(C)C(c1ccc([C@H]3CC[C@H](CN4CCCC(O)C4=O)CC3)c(Cl)c1)=N2 (stereo partly drawn) [Example 6-19] | 10 to 100 nM | 225 to 226 °C |
| CC1(C)Oc2nc(C(F)(F)F)nc(N)c2N=C1c1ccc([C@H]2CC[C@H](CC(=O)O)CC2)c(Cl)c1 [Example 6-20] | < 10 nM | 247 to 248 °C |
| CC1(C)Oc2nc(C(F)(F)F)nc(N)c2N=C1c1ccc([C@H]2CC[C@H](CN3CCOC3=O)CC2)c(Cl)c1 [Example 6-21] | 10 to 100 nM | > 250 °C |
| CC1(C)Oc2nc(C(F)(F)F)nc(N)c2N=C1c1ccc([C@H]2CC[C@H](CNC(N)=O)CC2)c(Cl)c1 [Example 6-22] | 10 to 100 nM | 147 °C (dec.) |
| Cc1nc(N)c2c(n1)OC(C)(C)C(c1ccc([C@H]3CC[C@H](CNC(N)=O)CC3)c(Cl)c1)=N2 [Example 6-23] | 10 to 100 nM | 160 to 166 °C |
| CC1(C)Oc2nc(C(F)(F)F)nc(N)c2N=C1c1ccc([C@H]2CC[C@H](CNC(=O)CO)CC2)c(Cl)c1 [Example 6-24] | 10 to 100 nM | 213 to 216 °C |
| CC1(C)Oc2nc(C(F)(F)F)nc(N)c2N=C1c1ccc([C@H]2CC[C@H](Cc3nc(=O)o[nH]3)CC2)c(Cl)c1 [Example 6-25] | 10 to 100 nM | 236 to 237 °C |
| Cc1nc(N)c2c(n1)OC(C)(C)C(c1ccc([C@H]3CC[C@H](CC(=O)O)CC3)c(Cl)c1)=N2 [Example 6] | < 10 nM | > 230 °C |
